The text below walks through data of PubChem BioAssay AID1845194 (Molecular Pharmacology Branch, DTP, NCI, 2023).

Values joined by “and” are separate entries in the source; they are usually repeats but may differ in a detail not shown here. Equal entries are not always repeated.

This assay deals with 287954-098-R-J1 tumor spheroid viability. Kind of assay: Anticancer human tumor 287954-098-R-J1 patient-derived Ewing sarcoma cell line growth inhibition. The following applies: spheroids with HUVEC and MSC; for viability, T/C: stronger effect = lower value. The essentials: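 Complex spheroids of malignant cells with endothelial cells and mesenchymal stem cells; agents alone or combined, from near clinical Cmax (or 10 microM if unknown) down in half-log steps, 0.25% DMSO final.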

Where [1] appears, read: curve of first compound, second compound 30 pM.
The mark [2] stands for this setting: curve of first compound, second compound 94.9 pM.
The mark [3] stands for this setting: curve of first compound, second compound 0.0003 µM.
[4] abbreviates: curve of first compound, second compound 0.000949 µM.
Where [5] appears, read: curve of first compound, second compound 0.003 µM.
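Further: spheroids exposed to compound for 7 days before viability readout.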
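Wherever viability, T/C is given: luminescent signal taken as surrogate of viable cell content; 100% = DMSO vehicle control viability and lower means growth inhibition.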

For orientation: IC50 means the midpoint of a concentration-inhibition curve. A word on the viability, T/C: it is the result in the treated group divided by that in the control group, in per cent. As to `Cc1cc(C)c(CNC(=O)c2cc(-c3ccc(CN4CCOCC4)cc3)cc3c2cnn3C2CCCC2)c(=O)[nH]1` + COc1cc2c(cc1O)CCNC21CSC2c3c(OC(C)=O)c(C)c4c(c3C(COC1=O)N1C(O)C3Cc5cc(C)c(OC)c(O)c5C(C21)N3C)OCO4, the IC50 under setting [1] is greater than 10000 nM; the concentration for half-maximal inhibition (IC50) under setting [2] was greater than 10000 nM; the IC50 under setting [3] was greater than 10000 nM; the IC50 under setting [4] was less than 31.6 nM; the concentration for half-maximal inhibition (IC50) under setting [5] was less than 31.6 nM. The viability, T/C is, setting by setting: (second compound 30 pM, first compound 0.0316 µM) 106%; (second compound 30 pM, first compound 0.1 µM) 108%; (second compound 30 pM, first compound 0.316 µM) 106%; (second compound 30 pM, first compound 1 µM) 107%; (second compound 30 pM, first compound 3.16 µM) 117%; (second compound 30 pM, first compound 10 µM) 116%. Moreover, the viability, T/C is 106% (second compound 94.9 pM, first compound 0.0316 µM); 105% (second compound 94.9 pM, first compound 0.1 µM); 105% (second compound 94.9 pM, first compound 0.316 µM); 109% (second compound 94.9 pM, first compound 1 µM); 108% (second compound 94.9 pM, first compound 3.16 µM); 117% (second compound 94.9 pM, first compound 10 µM). Also, the viability, T/C (second compound 0.0003 µM, first compound 0.0316 µM) was 96.7%; the viability, T/C (second compound 0.0003 µM, first compound 0.1 µM) is 109%; the viability, T/C (second compound 0.0003 µM, first compound 0.316 µM) is 108%; the viability, T/C (second compound 0.0003 µM, first compound 1 µM) is 113%; the viability, T/C (second compound 0.0003 µM, first compound 3.16 µM) was 103%; the viability, T/C (second compound 0.0003 µM, first compound 10 µM) was 102%. In addition, the viability, T/C (second compound 0.000949 µM, first compound 0.0316 µM) is 0.27%; the viability, T/C (second compound 0.000949 µM, first compound 0.1 µM) is 0.28%; the viability, T/C (second compound 0.000949 µM, first compound 0.316 µM) is 0.23%; the viability, T/C (second compound 0.000949 µM, first compound 1 µM) is 0.2%; the viability, T/C (second compound 0.000949 µM, first compound 3.16 µM) is 0.18%; the viability, T/C (second compound 0.000949 µM, first compound 10 µM) is 0.25%. The viability, T/C was 0.2% (second compound 0.003 µM, first compound 0.0316 µM); 0.23% (second compound 0.003 µM, first compound 0.1 µM); 0.15% (second compound 0.003 µM, first compound 0.316 µM); 0.12% (second compound 0.003 µM, first compound 1 µM); 0.12% (second compound 0.003 µM, first compound 3.16 µM); 0.22% (second compound 0.003 µM, first compound 10 µM).
With `CC(C)n1c(=O)n(C)c2cnc3cc(F)c(-c4ccc(OCCCN5CCCCC5)nc4)cc3c21`, the viability, T/C is 110% (2×) and 102% (compound 0.0316 µM); 102% (2×) and 101% (compound 0.1 µM); 110% and 98.5% and 105% (compound 0.316 µM); 102% and 110% and 112% (compound 1 µM); 108% and 107% (2×) (compound 3.16 µM); 11% and 86.6% and 25.5% (compound 10 µM). Further, the IC50 (curve of compound) is 6240 nM and > 10000 nM and 7030 nM.
For `COc1ccc([C@@H](O)c2cc(-c3ncnc4cc(N5CCOCC5)ccc34)c(F)cc2Cl)nn1`, the viability, T/C was 96.1% and 101% and 92.6% (compound 0.0316 µM); 96% and 113% and 96.1% (compound 0.1 µM); 97% and 107% and 92.6% (compound 0.316 µM); 105% (2×) and 102% (compound 1 µM); 109% and 98.1% and 100% (compound 3.16 µM); 103% and 87.1% and 82.1% (compound 10 µM). The IC50 (curve of compound) was greater than 10000 nM.
Turning to `Cc1sc2c(c1C)C(c1ccc(Cl)cc1)=NC(CC(=O)Nc1ccc(O)cc1)c1nnc(C)n1-2` (centres undefined) + COc1cc2c(cc1O)CCNC21CSC2c3c(OC(C)=O)c(C)c4c(c3C(COC1=O)N1C(O)C3Cc5cc(C)c(OC)c(O)c5C(C21)N3C)OCO4, the half-inhibitory concentration (IC50) is, setting by setting: under setting [1], 529 nM; under setting [2], 428 nM; under setting [3], 77.3 nM; under setting [4], less than 9.49 nM; under setting [5], less than 9.49 nM. For the same compound, the viability, T/C (second compound 30 pM, first compound 0.00949 µM) is 110%; the viability, T/C (second compound 30 pM, first compound 0.03 µM) is 120%; the viability, T/C (second compound 30 pM, first compound 0.0949 µM) was 111%; the viability, T/C (second compound 30 pM, first compound 0.3 µM) was 97.2%; the viability, T/C (second compound 30 pM, first compound 0.949 µM) is 1.47%; the viability, T/C (second compound 30 pM, first compound 3 µM) was 1.05%. Also, the viability, T/C is 109% (second compound 94.9 pM, first compound 0.00949 µM); 117% (second compound 94.9 pM, first compound 0.03 µM); 112% (second compound 94.9 pM, first compound 0.0949 µM); 65.4% (second compound 94.9 pM, first compound 0.3 µM); 14.5% (second compound 94.9 pM, first compound 0.949 µM); 1.03% (second compound 94.9 pM, first compound 3 µM). In addition, the viability, T/C (second compound 0.0003 µM, first compound 0.00949 µM) is 105%; the viability, T/C (second compound 0.0003 µM, first compound 0.03 µM) is 93.7%; the viability, T/C (second compound 0.0003 µM, first compound 0.0949 µM) was 39%; the viability, T/C (second compound 0.0003 µM, first compound 0.3 µM) is 12.4%; the viability, T/C (second compound 0.0003 µM, first compound 0.949 µM) is 0.78%; the viability, T/C (second compound 0.0003 µM, first compound 3 µM) is 0.57%. The viability, T/C (second compound 0.000949 µM, first compound 0.00949 µM) is 0.33%; the viability, T/C (second compound 0.000949 µM, first compound 0.03 µM) was 0.34%; the viability, T/C (second compound 0.000949 µM, first compound 0.0949 µM) is 0.25%; the viability, T/C (second compound 0.000949 µM, first compound 0.3 µM) was 0.07%; the viability, T/C (second compound 0.000949 µM, first compound 0.949 µM) was 0.03%; the viability, T/C (second compound 0.000949 µM, first compound 3 µM) was 0.11%. Also, the viability, T/C was 0.17% (second compound 0.003 µM, first compound 0.00949 µM); 0.16% (second compound 0.003 µM, first compound 0.03 µM); 0.1% (second compound 0.003 µM, first compound 0.0949 µM); 0.11% (second compound 0.003 µM, first compound 0.3 µM); 0.11% (second compound 0.003 µM, first compound 0.949 µM); 0.19% (second compound 0.003 µM, first compound 3 µM).
